Measured values from patent publication US20140011682A1, “USE OF OPEN-CHAIN CARBOXYLIC ACIDS, CARBONIC ESTERS, CARBOXAMIDES AND CARBONITRILES OF ARYL, HETEROARYL AND BENZYLSULFONAMIDE OR THE SALTS THEREOF FOR IMPROVING THE STRESS TOLERANCE IN PLANTS” (BAYER INTELLECTUAL PROPERTY GMBH, priority 2010, published 2014).

What was measured:
Type in all cases: in vivo
Conditions in all cases: mean of three results
BRSNS=Brassica napus = assay: Drought stress test on crop plants in the greenhouse, spray application, Brassica napus
Method: (§1) Seeds of monocotyledonous and dicotyledonous crop plants were placed in sandy loam in wood-fiber pots, covered with soil and cultivated in a greenhouse under good growth conditions. The test plants were treated at the early leaf stage (BBCH10 BBCH13). To ensure uniform water supply before commencement of stress, the potted plants were supplied with the maximum amount of water immediately beforehand by dam irrigation and, after application, transferred in plastic inserts in order to prevent subsequent, excessively rapid drying. The inventive compounds, formulated in the form of wettable powders (WP), wettable granules (WG), suspension concentrates (SC) or emulsion concentrates (EC), were sprayed onto the green parts of the plants as an aqueous suspension at an equivalent water application rate of 600 l/ha with addition of 0.2% wetting agent (agrotin). Substance application is followed immediately by stress treatment of the plants (cold or drought stress). For cold stress treatment, the plants were kept under the following controlled conditions:
(§2) Drought stress was induced by gradual drying out under the following conditions:
(§3) “day”: 14 hours with illumination at 26° C.
(§4) “night”: 10 hours without illumination at 18° C.
(§5) The duration of the respective stress phases was guided mainly by the state of the untreated, stressed control plants and thus varied from crop to crop. It was ended (by re-irrigating or transferring it to a greenhouse with good growth conditions) as soon as irreversible damage was observed on the untreated, stressed control plants. In the case of dicotyledonous crops, for example oilseed rape and soybeans, the duration of the drought stress phase varied between 3 and 5 days, in the case of monocotyledonous crops, for example wheat, barley or corn, between 6 and 10 days. The duration of the cold stress phase varied between 12 and 14 days. The end of the stress phase was followed by an approx. 5-7-day recovery phase, during which the plants were once again kept under good growth conditions in a greenhouse. In order to rule out any influence of the effects observed by any fungicidal action of the test compounds, it is additionally ensured that the tests proceed without fungal infection and without infection pressure.
(§6) After the recovery phase had ended, the intensities of damage were rated in visual comparison to untreated, unstressed controls of the same age (in the case of drought stress) or the same growth stage (in the case of cold stress). The intensity of damage was first assessed as a percentage (100%=plants have died, 0%=like control plants). These values were then used to calculate the efficacy of the test compounds (=percentage reduction in the intensity of damage as a result of substance application) by the following formula: […]
(§7) DVus: damage value of the untreated, stressed control
(§8) DVts: damage value of the plants treated with test compound
(§9) The tables below list mean values in each case from three results of the same test.

ZEAMX=Zea mays = assay: Drought stress test on crop plants in the greenhouse, spray application, Zea mays
Method: as §1, §2, §3, §4, §5, §6, §7, §8, §9

TRZAS=Triticum aestivum = assay: Drought stress test on crop plants in the greenhouse, spray application, Triticum aestivum
Method: as §1, §2, §3, §4, §5, §6, §7, §8, §9

Question: Which results are given for `CC(C)CC(C)(C#N)NS(=O)(=O)c1ccc(Br)cc1` (centres unmarked) [I.1-14]?
Answer: EF (BRSNS): Efficacy = percentage reduction in the intensity of damage (BRSNS=Brassica napus; dosage 25 g/ha): >5%; EF (ZEAMX): Efficacy = percentage reduction in the intensity of damage (ZEAMX=Zea mays; dosage 250 g/ha): >5%

Question: How did the “EF (BRSNS): Efficacy = percentage reduction in the intensity of damage” value (BRSNS=Brassica napus; dosage 2.5 g/ha) turn out when `CCOC(=O)CC(NS(=O)(=O)c1ccc(Br)cc1)C(C)C` (centres unmarked) [I.1-28] was run?
Answer: >5%

Question: How did the “EF (BRSNS): Efficacy = percentage reduction in the intensity of damage” value (BRSNS=Brassica napus; dosage 250 g/ha) turn out when `COC(=O)CC(NS(=O)(=O)c1ccc(Br)cc1)C(C)C` (centres unmarked) [I.1-29, Methyl 3-{[(4-bromophenyl)sulfonyl]amino}-4-methylpentanoate] was run?
Answer: >5%

Question: And the “EF (ZEAMX): Efficacy = percentage reduction in the intensity of damage” value (ZEAMX=Zea mays; dosage 250 g/ha)?
Answer: >5%

Question: How did the “EF (BRSNS): Efficacy = percentage reduction in the intensity of damage” value (BRSNS=Brassica napus; dosage 25 g/ha) turn out when `CCOC(=O)CC(NS(=O)(=O)c1ccc(Br)cc1)c1ccccc1Cl` (centres unmarked) [I.1-33] was run?
Answer: >5%

Question: What about the “EF (TRZAS) Efficacy” value (TRZAS=Triticum aestivum; dosage 250 g/ha) of the same compound?
Answer: >5%

Question: For `COC(=O)CC(NS(=O)(=O)c1ccc(Br)cc1)c1ccc(Br)cc1` (centres unmarked) [I.1-35], which “EF (BRSNS): Efficacy = percentage reduction in the intensity of damage” value (BRSNS=Brassica napus; dosage 2.5 g/ha) is on record?
Answer: >5%

Question: And the “EF (TRZAS) Efficacy” value (TRZAS=Triticum aestivum; dosage 25 g/ha)?
Answer: >5%

Question: How did the “EF (BRSNS): Efficacy = percentage reduction in the intensity of damage” value (BRSNS=Brassica napus; dosage 250 g/ha) turn out when `COC(=O)CC(NS(=O)(=O)c1ccc(Br)cc1)C(=O)OC` (centres unmarked) [I.1-63] was run?
Answer: >5%

Question: And the “EF (TRZAS) Efficacy” value (TRZAS=Triticum aestivum; dosage 25 g/ha)?
Answer: >5%

Question: How did the “EF (BRSNS): Efficacy = percentage reduction in the intensity of damage” value (BRSNS=Brassica napus; dosage 250 g/ha) turn out when `COC(=O)C(CC(C)C)NS(=O)(=O)c1ccc(Br)cc1` (centres unmarked) [I.1-77] was run?
Answer: >5%

Question: Which results are given for `CCOC(=O)CC(NS(=O)(=O)c1ccc(Br)cc1)C(F)(F)F` (centres unmarked) [I.1-103]?
Answer: EF (BRSNS): Efficacy = percentage reduction in the intensity of damage (BRSNS=Brassica napus; dosage 250 g/ha): >5%; EF (TRZAS) Efficacy (TRZAS=Triticum aestivum; dosage 25 g/ha): >5%

Question: Which results are given for `CCOC(=O)CC(CC(C)C)NS(=O)(=O)c1cccc2ccccc12` (centres unmarked) [I.2-62]?
Answer: EF (ZEAMX): Efficacy = percentage reduction in the intensity of damage (ZEAMX=Zea mays; dosage 25 g/ha): >5%; EF (TRZAS) Efficacy (TRZAS=Triticum aestivum; dosage 250 g/ha): >5%

Question: How did the “EF (BRSNS): Efficacy = percentage reduction in the intensity of damage” value (BRSNS=Brassica napus; dosage 250 g/ha) turn out when `COC(=O)C(Cc1cn(C)cn1)NS(=O)(=O)c1cccc2ccccc12` (centres unmarked) [I.2-74] was run?
Answer: >5%

Question: And the “EF (TRZAS) Efficacy” value (TRZAS=Triticum aestivum; dosage 25 g/ha)?
Answer: >5%

Question: What does the source list for `COC(=O)C(NS(=O)(=O)c1cccc2ccccc12)C(C)C` (centres unmarked) [I.2-75]?
Answer: EF (BRSNS): Efficacy = percentage reduction in the intensity of damage (BRSNS=Brassica napus; dosage 25 g/ha): >5%; EF (ZEAMX): Efficacy = percentage reduction in the intensity of damage (ZEAMX=Zea mays; dosage 250 g/ha): >5%; EF (TRZAS) Efficacy (TRZAS=Triticum aestivum; dosage 25 g/ha): >5%

Question: Which “EF (BRSNS): Efficacy = percentage reduction in the intensity of damage” value (BRSNS=Brassica napus; dosage 2.5 g/ha) does the source give for `COC(=O)C(CC(C)C)NS(=O)(=O)c1cccc2ccccc12` (centres unmarked) [I.2-77] here?
Answer: >5%

Question: What about the “EF (TRZAS) Efficacy” value (TRZAS=Triticum aestivum; dosage 250 g/ha) of the same compound?
Answer: >5%

Question: Which results are given for `C#CCC(NS(=O)(=O)c1cccc2ccccc12)C(=O)OC` (centres unmarked) [I.2-86]?
Answer: EF (BRSNS): Efficacy = percentage reduction in the intensity of damage (BRSNS=Brassica napus; dosage 250 g/ha): >5%; EF (TRZAS) Efficacy (TRZAS=Triticum aestivum; dosage 250 g/ha): >5%

Question: How did the “EF (BRSNS): Efficacy = percentage reduction in the intensity of damage” value (BRSNS=Brassica napus; dosage 250 g/ha) turn out when `CCOC(=O)CC(NS(=O)(=O)c1ccc(Br)c2ccccc12)C(C)C` (centres unmarked) [I.3-28] was run?
Answer: >5%

Question: And the “EF (TRZAS) Efficacy” value (TRZAS=Triticum aestivum; dosage 250 g/ha)?
Answer: >5%

Question: With `CC(C)(C)OC(=O)CCCNS(=O)(=O)c1ccc(Br)c2ccccc12` [I.3-70] as the compound, how does the “EF (BRSNS): Efficacy = percentage reduction in the intensity of damage” value (BRSNS=Brassica napus; dosage 2.5 g/ha) read?
Answer: >5%

Question: What does the source list for `COC(=O)C(NS(=O)(=O)c1ccc(Br)c2ccccc12)C(C)C` (centres unmarked) [I.3-75]?
Answer: EF (BRSNS): Efficacy = percentage reduction in the intensity of damage (BRSNS=Brassica napus; dosage 250 g/ha): >5%; EF (TRZAS) Efficacy (TRZAS=Triticum aestivum; dosage 25 g/ha): >5%

Question: How did the “EF (BRSNS): Efficacy = percentage reduction in the intensity of damage” value (BRSNS=Brassica napus; dosage 25 g/ha) turn out when `COC(=O)C(Cc1ccc(F)cc1)NS(=O)(=O)c1ccc(Br)c2ccccc12` (centres unmarked) [I.3-90] was run?
Answer: >5%

Question: What about the “EF (TRZAS) Efficacy” value (TRZAS=Triticum aestivum; dosage 25 g/ha) of the same compound?
Answer: >5%

Question: For `CCOC(=O)CC(NS(=O)(=O)c1ccc(Br)c2ccccc12)C(F)(F)F` (centres unmarked) [I.3-103], which “EF (BRSNS): Efficacy = percentage reduction in the intensity of damage” value (BRSNS=Brassica napus; dosage 25 g/ha) is on record?
Answer: >5%

Question: What about the “EF (TRZAS) Efficacy” value (TRZAS=Triticum aestivum; dosage 25 g/ha) of the same compound?
Answer: >5%

Question: How did the “EF (BRSNS): Efficacy = percentage reduction in the intensity of damage” value (BRSNS=Brassica napus; dosage 25 g/ha) turn out when `COC(=O)C(Cc1c[nH]cn1)NS(=O)(=O)c1ccc(Br)c2ccccc12` (centres unmarked) [I.3-106] was run?
Answer: >5%

Question: And the “EF (TRZAS) Efficacy” value (TRZAS=Triticum aestivum; dosage 250 g/ha)?
Answer: >5%

Question: `CCOC(=O)CC(NS(=O)(=O)c1ccc(OC)cc1)C(C)C` (centres unmarked) [I.37-28] was tested. Which “EF (BRSNS): Efficacy = percentage reduction in the intensity of damage” value (BRSNS=Brassica napus; dosage 250 g/ha) did it give?
Answer: >5%

Question: And the “EF (TRZAS) Efficacy” value (TRZAS=Triticum aestivum; dosage 250 g/ha)?
Answer: >5%

Question: How did the “EF (BRSNS): Efficacy = percentage reduction in the intensity of damage” value (BRSNS=Brassica napus; dosage 25 g/ha) turn out when `CCCC(NS(=O)(=O)c1ccc(OC)cc1)C(=O)OC` (centres unmarked) [I.37-73] was run?
Answer: >5%

Question: And the “EF (TRZAS) Efficacy” value (TRZAS=Triticum aestivum; dosage 250 g/ha)?
Answer: >5%

Question: Which “EF (BRSNS): Efficacy = percentage reduction in the intensity of damage” value (BRSNS=Brassica napus; dosage 250 g/ha) does the source give for `COC(=O)C(NS(=O)(=O)c1ccc(OC)cc1)C(C)C` (centres unmarked) [I.37-75] here?
Answer: >5%

Question: Which results are given for `COC(=O)C(Cc1cccnc1)NS(=O)(=O)c1ccc(OC)cc1` (centres unmarked) [I.37-82]?
Answer: EF (BRSNS): Efficacy = percentage reduction in the intensity of damage (BRSNS=Brassica napus; dosage 250 g/ha): >5%; EF (TRZAS) Efficacy (TRZAS=Triticum aestivum; dosage 25 g/ha): >5%

Question: What does the source list for `C#CCC(NS(=O)(=O)c1ccc(OC)cc1)C(=O)OC` (centres unmarked) [I.37-86]?
Answer: EF (ZEAMX): Efficacy = percentage reduction in the intensity of damage (ZEAMX=Zea mays; dosage 250 g/ha): >5%; EF (TRZAS) Efficacy (TRZAS=Triticum aestivum; dosage 250 g/ha): >5%

Question: Which “EF (BRSNS): Efficacy = percentage reduction in the intensity of damage” value (BRSNS=Brassica napus; dosage 250 g/ha) does the source give for `COC(=O)C(Cc1ccc(F)cc1)NS(=O)(=O)c1ccc(OC)cc1` (centres unmarked) [I.37-90] here?
Answer: >5%

Question: And the “EF (ZEAMX): Efficacy = percentage reduction in the intensity of damage” value (ZEAMX=Zea mays; dosage 25 g/ha)?
Answer: >5%

Question: With `COC(=O)C(COC(C)(C)C)NS(=O)(=O)c1ccc(OC)cc1` (centres unmarked) [I.37-91] as the compound, how does the “EF (BRSNS): Efficacy = percentage reduction in the intensity of damage” value (BRSNS=Brassica napus; dosage 250 g/ha) read?
Answer: >5%

Question: And the “EF (ZEAMX): Efficacy = percentage reduction in the intensity of damage” value (ZEAMX=Zea mays; dosage 25 g/ha)?
Answer: >5%

Question: How did the “EF (BRSNS): Efficacy = percentage reduction in the intensity of damage” value (BRSNS=Brassica napus; dosage 25 g/ha) turn out when `CCOC(=O)CC(NS(=O)(=O)c1c(C)cccc1C)C(C)C` (centres unmarked) [I.52-28] was run?
Answer: >5%
